# Measured values reported in patent US10246451B2, “Propionic acid derivatives and methods of use thereof” (Aviara Pharmaceuticals, Inc., priority 2017, dated 2019).
# Target: α4β1 integrin (Homo sapiens, UniProt P05556+P13612)
# Test: a4b1 IC50 (inhibition of α4β1 integrin; no method described)
# Assay type: binding
# Sequence of α4β1 integrin (P13612 34-1032): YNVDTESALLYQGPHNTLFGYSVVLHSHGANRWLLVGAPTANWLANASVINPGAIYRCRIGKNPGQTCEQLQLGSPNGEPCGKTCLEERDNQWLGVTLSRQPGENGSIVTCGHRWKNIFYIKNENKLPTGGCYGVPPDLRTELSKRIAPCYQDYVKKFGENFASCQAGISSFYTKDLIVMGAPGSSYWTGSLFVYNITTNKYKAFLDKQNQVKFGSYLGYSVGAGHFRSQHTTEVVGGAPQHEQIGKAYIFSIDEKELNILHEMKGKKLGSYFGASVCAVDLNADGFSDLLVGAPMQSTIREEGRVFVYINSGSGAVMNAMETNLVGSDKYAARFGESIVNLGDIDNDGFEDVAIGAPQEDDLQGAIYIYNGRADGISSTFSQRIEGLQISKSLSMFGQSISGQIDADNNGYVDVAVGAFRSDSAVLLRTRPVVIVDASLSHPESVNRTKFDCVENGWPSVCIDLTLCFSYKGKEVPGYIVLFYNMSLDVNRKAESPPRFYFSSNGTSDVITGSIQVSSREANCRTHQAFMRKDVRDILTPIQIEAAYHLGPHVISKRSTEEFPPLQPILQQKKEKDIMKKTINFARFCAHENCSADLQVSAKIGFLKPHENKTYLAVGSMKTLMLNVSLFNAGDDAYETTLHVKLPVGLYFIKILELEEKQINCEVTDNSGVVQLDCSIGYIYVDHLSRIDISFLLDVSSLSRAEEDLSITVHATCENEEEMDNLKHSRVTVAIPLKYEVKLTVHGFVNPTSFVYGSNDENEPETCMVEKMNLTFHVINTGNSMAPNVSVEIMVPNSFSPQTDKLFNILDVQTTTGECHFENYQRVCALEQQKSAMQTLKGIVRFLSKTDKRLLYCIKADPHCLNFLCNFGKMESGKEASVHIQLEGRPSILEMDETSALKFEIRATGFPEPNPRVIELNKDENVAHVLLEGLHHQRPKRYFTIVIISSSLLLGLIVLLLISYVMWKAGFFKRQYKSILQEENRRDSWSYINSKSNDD
# Sequence of α4β1 integrin (P05556 21-798): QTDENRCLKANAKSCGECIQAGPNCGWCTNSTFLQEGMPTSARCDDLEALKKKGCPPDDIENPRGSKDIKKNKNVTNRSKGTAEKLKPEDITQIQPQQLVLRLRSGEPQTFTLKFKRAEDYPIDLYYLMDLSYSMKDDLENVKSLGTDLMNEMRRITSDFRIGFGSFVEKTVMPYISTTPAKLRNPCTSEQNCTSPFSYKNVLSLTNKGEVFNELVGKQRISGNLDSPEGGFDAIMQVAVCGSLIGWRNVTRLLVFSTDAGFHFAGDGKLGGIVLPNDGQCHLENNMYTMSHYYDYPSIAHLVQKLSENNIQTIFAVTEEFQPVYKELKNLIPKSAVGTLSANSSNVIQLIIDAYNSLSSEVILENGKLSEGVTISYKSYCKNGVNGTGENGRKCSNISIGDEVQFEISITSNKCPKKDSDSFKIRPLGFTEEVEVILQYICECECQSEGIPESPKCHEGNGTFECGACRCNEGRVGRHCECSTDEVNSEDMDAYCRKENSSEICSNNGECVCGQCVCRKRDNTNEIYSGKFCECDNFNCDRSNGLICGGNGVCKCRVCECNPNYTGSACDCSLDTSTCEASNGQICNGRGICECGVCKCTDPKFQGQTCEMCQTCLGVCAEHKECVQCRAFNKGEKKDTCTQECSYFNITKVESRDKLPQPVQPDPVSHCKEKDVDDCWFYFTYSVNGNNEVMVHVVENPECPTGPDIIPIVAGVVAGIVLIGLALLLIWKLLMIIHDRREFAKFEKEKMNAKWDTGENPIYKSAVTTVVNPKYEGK
row,IC50,Structure (SMILES)
1,< 20 nM,"Cn1ccc(O)c(NC(=O)N[C@@H](CC(=O)O)c2cccc(Oc3ccc(F)cc3F)c2)c1=O [Compound 3-86, sodium(S)-3-(3-(2,4-difluorophenoxy)phenyl)-3-(3-(1-methyl-4-oxido-2-oxo-1,2-dihydropyridin-3-yl)ureido)propanoate]"
2,< 20 nM,"Cc1cccc(C)c1Oc1cccc([C@H](CC(=O)O)NC(=O)Nc2c(O)ccn(C)c2=O)c1 [Compound 3-87, sodium(S)-3-(3-(2,6-dimethylphenoxy)phenyl)-3-(3-(1-methyl-4-oxido-2-oxo-1,2-dihydropyridin-3-yl)ureido)propanoate]"
3,< 20 nM,"Cn1ccc(O)c(NC(=O)N[C@@H](CC(=O)O)c2ccc(Cc3ccccc3)cc2)c1=O [Compound 3-76, sodium (S)-3-(4-benzylphenyl)-3-(3-(1-methyl-4-oxido-2-oxo-1,2-dihydropyridin-3-yl)ureido)propanoate]"
4,< 20 nM,"Cc1cccc(Oc2cccc([C@H](CC(=O)O)NC(=O)Nc3c(O)ccn(C)c3=O)c2)c1 [Compound 3-84, sodium (S)-3-(3-(1-methyl-4-oxido-2-oxo-1,2-dihydropyridin-3-yl)ureido)-3-(3-(m-tolyloxy)phenyl)propanoate]"
5,< 20 nM,"Cn1ccc(O)c(NC(=O)N[C@@H](CC(=O)O)c2cccc(Cc3ccc(C(F)(F)F)cc3)c2)c1=O [Compound 3-90, sodium (S)-3-(3-(1-methyl-4-oxido-2-oxo-1,2-dihydropyridin-3-yl)ureido)-3-(3-(4-(trifluoromethyl)benzyl)phenyl)propanoate]"
6,< 20 nM,"Cc1ccccc1Cc1ccc([C@H](CC(=O)O)NC(=O)Nc2c(O)ccn(C)c2=O)s1 [Compound 3-95, sodium (S)-3-(3-(1-methyl-4-oxido-2-oxo-1,2-dihydropyridin-3-yl)ureido)-3-(5-(2-methylbenzyl)thiophen-2-yl)propanoate]"
7,< 20 nM,"Cc1ccc(F)cc1Cc1cccc([C@H](CC(=O)O)NC(=O)Nc2c(O)ccn(C)c2=O)c1 [Compound 3-70, sodium (S)-3-(3-(5-fluoro-2-methylbenzyl)phenyl)-3-(3-(1-methyl-4-oxido-2-oxo-1,2-dihydropyridin-3-yl)ureido)propanoate]"
8,> 200 nM,"Cc1ccc(Cc2ccc([C@H](CC(=O)O)NC(=O)Nc3c(O)ccn(C)c3=O)cc2)cc1 [Compound 3-79, sodium (S)-3-(3-(1-methyl-4-oxido-2-oxo-1,2-dihydropyridin-3-yl)ureido)-3-(4-(4-methylbenzyl)phenyl)propanoate]"
9,> 200 nM,"Cc1ccccc1C(F)(F)c1cccc([C@@H](CC(=O)O)NC(=O)Nc2c(O)ccn(C)c2=O)c1 [Compound 3-66, sodium (R)-3-(3-(difluoro(o-tolyl)methyl)phenyl)-3-(3-(1-methyl-4-oxido-2-oxo-1,2-dihydropyridin-3-yl)ureido)propanoate]"
10,< 200 nM,"Cc1ccccc1Cc1ccc([C@H](CC(=O)O)NC(=O)Nc2c(O)ccn(C)c2=O)cc1 [Compound 3-77, sodium (S)-3-(3-(1-methyl-4-oxido-2-oxo-1,2-dihydropyridin-3-yl)ureido)-3-(4-(2-methylbenzyl)phenyl)propanoate]"
11,< 200 nM,"COc1ccccc1Oc1ccc([C@H](CC(=O)O)NC(=O)Nc2c(O)ccn(C)c2=O)cc1 [Compound 3-72, sodium (S)-3-(4-(2-methoxyphenoxy)phenyl)-3-(3-(1-methyl-4-oxido-2-oxo-1,2-dihydropyridin-3-yl)ureido)propanoate]"
12,< 20 nM,"COc1ccccc1Oc1cccc([C@H](CC(=O)O)NC(=O)Nc2c(O)ccn(C)c2=O)c1 [Compound 3-68, sodium (S)-3-(3-(2-methoxyphenoxy)phenyl)-3-(3-(1-methyl-4-oxido-2-oxo-1,2-dihydropyridin-3-yl)ureido)propanoate]"
13,< 20 nM,"Cc1ccc(Oc2cccc([C@H](CC(=O)O)NC(=O)Nc3c(O)ccn(C)c3=O)c2)cc1 [Compound 3-85, sodium (S)-3-(3-(1-methyl-4-oxido-2-oxo-1,2-dihydropyridin-3-yl)ureido)-3-(3-(p-tolyloxy)phenyl)propanoate]"
14,< 20 nM,"Cc1ccccc1Cc1cccc([C@H](CC(=O)O)NC(=O)Nc2c(O)ccn(C)c2=O)c1 [Compound 3-81, sodium (S)-3-(3-(1-methyl-4-oxido-2-oxo-1,2-dihydropyridin-3-yl)ureido)-3-(3-(2-methylbenzyl)phenyl)propanoate]"
15,< 20 nM,"Cc1cccc(C)c1Cc1cccc([C@H](CC(=O)O)NC(=O)Nc2c(O)ccn(C)c2=O)c1 [Compound 3-94, sodium (S)-3-(3-(2,6-dimethylbenzyl)phenyl)-3-(3-(1-methyl-4-oxido-2-oxo-1,2-dihydropyridin-3-yl)ureido)propanoate]"
16,< 20 nM,"Cn1ccc(O)c(NC(=O)N[C@@H](CC(=O)O)c2cccc(Cc3ccccc3OC(F)F)c2)c1=O [Compound 3-91, sodium(S)-3-(3-(2-(difluoromethoxy)benzyl)phenyl)-3-(3-(1-methyl-4-oxido-2-oxo-1,2-dihydropyridin-3-yl)ureido) propanoate]"
17,< 20 nM,"Cn1ccc(O)c(NC(=O)N[C@@H](CC(=O)O)c2cccc(Oc3ccccc3Cl)c2)c1=O [Compound 3-69, sodium (S)-3-(3-(2-chlorophenoxy)phenyl)-3-(3-(1-methyl-4-oxido-2-oxo-1,2-dihydropyridin-3-yl)ureido)propanoate]"
18,< 20 nM,"Cc1ccc(Cc2cccc([C@H](CC(=O)O)NC(=O)Nc3c(O)ccn(C)c3=O)c2)cc1 [Compound 3-82, sodium (S)-3-(3-(1-methyl-4-oxido-2-oxo-1,2-dihydropyridin-3-yl)ureido)-3-(3-(4-methylbenzyl)phenyl)propanoate]"
19,> 200 nM,"Cc1cccc(Cc2ccc([C@H](CC(=O)O)NC(=O)Nc3c(O)ccn(C)c3=O)cc2)c1 [Compound 3-78, sodium (S)-3-(3-(1-methyl-4-oxido-2-oxo-1,2-dihydropyridin-3-yl)ureido)-3-(4-(3-methylbenzyl)phenyl)propanoate]"
20,< 20 nM,"Cn1ccc(O)c(NC(=O)N[C@@H](CC(=O)O)c2ccc(Cc3ccccc3)s2)c1=O [Compound 3-96, sodium (S)-3-(5-benzylthiophen-2-yl)-3-(3-(1-methyl-4-oxido-2-oxo-1,2-dihydro-pyridin-3-yl)ureido)propanoate]"
21,< 20 nM,"Cn1ccc(O)c(NC(=O)N[C@@H](CC(=O)O)c2cccc(Cc3ccccc3F)c2)c1=O [Compound 3-93, sodium (S)-3-(3-(2-fluorobenzyl)phenyl)-3-(3-(1-methyl-4-oxido-2-oxo-1,2-dihydro-pyridin-3-yl)ureido)propanoate]"
22,< 20 nM,"Cc1ccccc1Oc1cccc([C@H](CC(=O)O)NC(=O)Nc2c(O)ccn(C)c2=O)c1 [Compound 3-67, sodium (S)-3-(3-(1-methyl-4-oxido-2-oxo-1,2-dihydropyridin-3-yl)ureido)-3-(3-(o-tolyloxy)phenyl)propanoate]"

# Further lines, the compound ahead of its results:
row,Structure (SMILES),IC50
1,"Cc1ccccc1Cc1ccc([C@H](CC(=O)O)NC(=O)Nc2c(O)cc(C)n(C)c2=O)s1 [Compound 2-15, sodium (S)-3-(3-(1,6-dimethyl-4-oxido-2-oxo-1,2-dihydropyridin-3-yl)ureido)-3-(5-(2-methylbenzyl)thiophen-2-yl)propanoate]",≤ 20 nM
2,"Cc1cn(C)c(=O)c(NC(=O)NC(CC(=O)O)c2cccc(Oc3ccccc3)c2)c1O (stereo not drawn) [Compound 1-21, sodium 3-(3-(1,5-dimethyl-4-oxido-2-oxo-1,2-dihydropyridin-3-yl)ureido)-3-(3-phenoxyphenyl)propanoate]",< 200 nM
3,"Cc1cccc(Cc2cccc([C@H](CC(=O)O)NC(=O)Nc3c(O)c(C)cn(C)c3=O)c2)c1 [Compound 1-29, sodium (S)-3-(3-(1,5-dimethyl-4-oxido-2-oxo-1,2-dihydropyridin-3-yl)ureido)-3-(3-(3-methylbenzyl)phenyl)propanoate]",< 200 nM
4,"Cc1ccc(Cc2cccc([C@H](CC(=O)O)NC(=O)Nc3c(O)c(C)cn(C)c3=O)c2)cc1 [Compound 1-30, sodium (S)-3-(3-(1,5-dimethyl-4-oxido-2-oxo-1,2-dihydropyridin-3-yl)ureido)-3-(3-(4-methylbenzyl)phenyl)propanoate]",< 200 nM
5,"Cc1ccccc1Cc1cccc([C@H](CC(=O)O)NC(=O)Nc2c(O)c(C)cn(C)c2=O)c1 [Compound 1-28, sodium (S)-3-(3-(1,5-dimethyl-4-oxido-2-oxo-1,2-dihydropyridin-3-yl)ureido)-3-(3-(2-methylbenzyl)phenyl)propanoate]",< 20 nM
6,"COc1ccccc1Oc1ccc([C@H](CC(=O)O)NC(=O)Nc2c(O)cc(C)n(C)c2=O)cc1 [Compound 2-11, sodium (S)-3-(3-(1,6-dimethyl-4-oxido-2-oxo-1,2-dihydropyridin-3-yl)ureido)-3-(4-(2-methoxyphenoxy)phenyl)propanoate]",< 200 nM
7,"Cc1cn(C)c(=O)c(NC(=O)N[C@@H](CC(=O)O)c2ccc(Cc3ccccc3Cl)cc2)c1O [Compound 1-27, sodium (S)-3-(4-(2-chlorobenzyl)phenyl)-3-(3-(4-hydroxy-1,5-dimethyl-2-oxo-1,2-dihydropyridin-3-yl)ureido)propanoate]",> 200 nM
8,"Cc1cn(C)c(=O)c(NC(=O)NC(CC(=O)O)c2cccc(Cc3ccccc3Cl)c2)c1O (stereo not drawn) [Compound 1-24, sodium 3-(3-(2-chlorobenzyl)phenyl)-3-(3-(1,5-dimethyl-4-oxido-2-oxo-1,2-dihydropyridin-3-yl)ureido)propanoate]",< 200 nM
9,"Cc1cn(C)c(=O)c(NC(=O)N[C@@H](CC(=O)O)c2cccc(Oc3ccccc3)c2)c1O [Compound 1-22, sodium (S)-3-(3-(1,5-dimethyl-4-oxido-2-oxo-1,2-dihydropyridin-3-yl)ureido)-3-(3-phenoxyphenyl)propanoate]",< 200 nM
10,"Cc1cn(C)c(=O)c(NC(=O)N[C@@H](CC(=O)O)c2cccc(Cc3ccccc3)c2)c1O [Compound 1-23, sodium (S)-3-(3-benzylphenyl)-3-(3-(1,5-dimethyl-4-oxido-2-oxo-1,2-dihydropyridin-3-yl)ureido)propanoate]",< 200 nM
11,"Cc1ccccc1Cc1cccc([C@H](CC(=O)O)NC(=O)Nc2c(O)cc(C)n(C)c2=O)c1 [Compound 2-14, sodium (S)-3-(3-(1,6-dimethyl-4-oxido-2-oxo-1,2-dihydropyridin-3-yl)ureido)-3-(3-(2-methylbenzyl)phenyl)propanoate]",< 20 nM
